# Measured values from patent US20250099383A1, “COMPOSITIONS AND METHODS FOR DELIVERY OF NUCLEIC ACIDS” (Poseida Therapeutics, Inc., priority 2022, published 2025).
# Experiment: Physical characteristics of LNPs (particle size, PDI)
# Type: physicochemical
# Settings: for PDI DNA / Particle Size (nm) DNA: LNP with Fluc DNA, compound/DOPE/Cholesterol/DMG-PEG2000 38/50/10.0/2.0, Lipid:DNA 45:1 (w/w); for PDI RNA / Particle Size (nm) RNA: LNP with Fluc mRNA, compound/DOPE/Cholesterol/DMG-PEG2000 41.44/45.85/10/2.7, Lipid:RNA 40:1 (w/w)
# Description: LNP compositions of the present disclosure comprising exemplary compounds of Formula (I) were prepared by combining various percentages of an exemplary compound of Formula (I), the phospholipid DOPE, the structural lipid cholesterol (Chol) and 1,2-dimyristoyl-sn-glycerol methoxypolyethylene glycol (DMG-PEG2000; Avanti Polar Lipids, Alabaster, Alabama, USA).
# Individual 25 mg/ml stock solutions were prepared by solubilizing the lipids in 200-proof HPLC-grade ethanol and stock solutions were stored at −80° C. until formulated. At the time of formulation, the lipid stock solutions were briefly allowed to equilibrate to room temp and then placed on a hot plate maintained at a temperature range of 50-55° C.
# A 1 mg/ml solution of the desired mRNA or DNA to be incorporated into the LNPs was added to 150 mM sodium acetate buffer (pH 5.2) to form a stock solution and kept on ice. The aqueous mRNA or DNA was then added to the lipids as shown in Table 4 or 5 and hand-mixed vigorously with a single channel pipettor.
# The resultant mRNA or DNA LNP compositions were then transferred to a Repligen Float-A-Lyzer dialysis device-having a molecular weight cut off (MWCO) of 8-10 kDa (Spectrum Chemical Mfg. Corp, CA, USA) and processed by dialysis against phosphate buffered saline (PBS) (dialysate: dialysis buffer volume at least 1:200 v/v), pH 7.4 overnight at 4° C. (or alternatively room temperature for at least 4 hours), to remove the 25% ethanol and achieve a complete buffer exchange. In some experiments the LNPs were further concentrated by in an Amicon® Ultra-4 centrifugal filter unit, MWCO-30 kDa (Millipore Sigma, USA) spun at ˜4100 x g in an ultracentrifuge. The mRNA and DNA LNPs were then stored at 4° C. until further use.
# LNP compositions of the present disclosure comprising mRNA or DNA encoding firefly luciferase (hereafter “Fluc”; TriLink) and COMPOUNDS 5-49 were prepared as described in Example 61 by combining one of COMPOUNDS 5-49, the phospholipid DOPE, the structural lipid cholesterol (Chol) and 1,2-dimyristoyl-sn-glycerol methoxypolyethylene glycol (DMG-PEG2000) in the percentages presented in Tables 6 and 7:
# The physical characteristics of the resulting LNPs were analyzed.
# A 1 mg/ml solution of the 5′-CleanCap--fLuciferase mRNA (TriLink Biotech) to be incorporated into the LNPs was added to 150 mM sodium acetate buffer (pH 5.2) to form a stock solution and kept on ice. The lipid phase was mixed with the aqueous mRNA phase inside a microfluidic chip using a NanoAssemblr® instrument (Precision Nanosystems, Vancouver, BC, Canada) according to the manufacturer's instructions to form LNP compositions comprising encapsulated mRNAs.
# The average particle size diameter of the LNPs was approximately 75-150 nm.
smiles,measurement,value
CC(C)=CCC/C(C)=C/CCC1=CCC(C(=O)OCCOC(=O)CCN(CCC(=O)OCCOC(=O)C2CC=C(CC/C=C(\C)CCC=C(C)C)CC2)CCN(CCN(CCC(=O)OCCOC(=O)C2CC=C(CC/C=C(\C)CCC=C(C)C)CC2)CCC(=O)OCCOC(=O)C2CC=C(CC/C=C(\C)CCC=C(C)C)CC2)CCN(CCC(=O)OCCOC(=O)C2CC=C(CC/C=C(\C)CCC=C(C)C)CC2)CCC(=O)OCCOC(=O)C2CC=C(CC/C=C(\C)CCC=C(C)C)CC2)CC1 (stereo not drawn) [Compound 11],PDI DNA,0.152
same,Particle Size (nm) DNA,396.1 nm
same,PDI RNA,0.145
same,Particle Size (nm) RNA,355.6 nm
CC(C)=CCC/C(C)=C/CCC1=CCC(C(=O)OCCN(CCOC(=O)C2CC=C(CC/C=C(\C)CCC=C(C)C)CC2)C(C)(C)C)CC1 (stereo not drawn) [Compound 35],PDI DNA,0.129
same,Particle Size (nm) DNA,298.2 nm
same,PDI RNA,0.149
same,Particle Size (nm) RNA,364.7 nm
CC(C)=CCCC1=CCC(C(=O)OCCN(CCO)CCOC(=O)C2CC=C(CCC=C(C)C)CC2)CC1 (stereo not drawn) [Compound 49],PDI DNA,0.104
same,Particle Size (nm) DNA,308.7 nm
same,PDI RNA,0.045
same,Particle Size (nm) RNA,245.3 nm
CC(C)=CCC/C(C)=C/CCC1=CCC(C(=O)OCCN(C)CCOC(=O)C2CC=C(CC/C=C(\C)CCC=C(C)C)CC2)CC1 (stereo not drawn) [Compound 32],PDI DNA,0.09
same,Particle Size (nm) DNA,289.2 nm
same,PDI RNA,0.108
same,Particle Size (nm) RNA,269.6 nm
CC(C)CCCC(C)CCCC1CCC(C(=O)OCCOC(=O)CCN(CCCCCCN(CCC(=O)OCCOC(=O)C2CCC(CCCC(C)CCCC(C)C)CC2)CCC(=O)OCCOC(=O)C2CCC(CCCC(C)CCCC(C)C)CC2)CCC(=O)OCCOC(=O)C2CCC(CCCC(C)CCCC(C)C)CC2)CC1 (stereo not drawn) [Compound 14],PDI DNA,0.219
same,Particle Size (nm) DNA,348.8 nm
same,PDI RNA,0.104
same,Particle Size (nm) RNA,334.8 nm
"CC(C)CCCC(C)CCCC1CCC(C(=O)OCCOC(=O)CCN(CCC(=O)OCCOC(=O)C2CCC(CCCC(C)CCCC(C)C)CC2)CCN2CCCCC2)CC1 (stereo not drawn) [Compound 13, ((3,3′-((2-(piperidin-1-yl)ethyl)azanediyl)bis(propanoyl))bis(oxy)) bis(ethane-2,1-diyl)bis(4-(4,8-dimethylnonyl)cyclohexanecarboxylate)]",PDI DNA,0.232
same,Particle Size (nm) DNA,174.1 nm
same,PDI RNA,0.272
same,Particle Size (nm) RNA,120.6 nm
CC(C)CCCC1CCC(C(=O)OCCOC(=O)CCN(CCCN(C)C)CCC(=O)OCCOC(=O)C2CCC(CCCC(C)C)CC2)CC1 (stereo not drawn) [Compound 25],PDI DNA,0.227
same,Particle Size (nm) DNA,188.5 nm
same,PDI RNA,0.143
same,Particle Size (nm) RNA,177.9 nm
"CC(C)CCCC(C)CCCC1CCC(C(=O)OCCOC(=O)CCN(CCCN(C)C)CCC(=O)OCCOC(=O)C2CCC(CCCC(C)CCCC(C)C)CC2)CC1 (stereo not drawn) [Compound 12, ((3,3′-((3-(dimethylamino)propyl)azanediyl)bis(propanoyl))bis(oxy)) bis(ethane-2,1-diyl)bis(4-(4,8-dimethylnonyl)cyclohexanecarboxylate)]",PDI DNA,0.235
same,Particle Size (nm) DNA,170.6 nm
same,PDI RNA,0.235
same,Particle Size (nm) RNA,167.6 nm
CC(C)CCCC1CCC(C(=O)OCCOC(=O)CCN(CCCCCCN(CCC(=O)OCCOC(=O)C2CCC(CCCC(C)C)CC2)CCC(=O)OCCOC(=O)C2CCC(CCCC(C)C)CC2)CCC(=O)OCCOC(=O)C2CCC(CCCC(C)C)CC2)CC1 (stereo not drawn) [Compound 27],PDI DNA,0.177
same,Particle Size (nm) DNA,253.9 nm
same,PDI RNA,0.149
same,Particle Size (nm) RNA,293.9 nm
CC(C)CCCC(C)CCCC1CCC(C(=O)OCCOC(=O)CCN(CCC(=O)OCCOC(=O)C2CCC(CCCC(C)CCCC(C)C)CC2)CC(C)N(CCC(=O)OCCOC(=O)C2CCC(CCCC(C)CCCC(C)C)CC2)CCC(=O)OCCOC(=O)C2CCC(CCCC(C)CCCC(C)C)CC2)CC1 (stereo not drawn) [Compound 15],PDI DNA,0.183
same,Particle Size (nm) DNA,297.6 nm
same,PDI RNA,0.115
same,Particle Size (nm) RNA,362.5 nm
CC(C)CCCC1CCC(C(=O)OCCOC(=O)CCN(CCC(=O)OCCOC(=O)C2CCC(CCCC(C)C)CC2)CCN2CCCCC2)CC1 (stereo not drawn) [Compound 26],PDI DNA,0.151
same,Particle Size (nm) DNA,162.1 nm
same,PDI RNA,0.202
same,Particle Size (nm) RNA,169.4 nm
CC(C)=CCCC1=CCC(C(=O)OCCN(CCOC(=O)C2CC=C(CCC=C(C)C)CC2)C(C)(C)C)CC1 (stereo not drawn) [Compound 45],PDI DNA,0.082
same,Particle Size (nm) DNA,340.4 nm
same,PDI RNA,0.131
same,Particle Size (nm) RNA,356.1 nm
"CC(C)=CCC/C(C)=C/CCC1=CCC(C(=O)OCCOC(=O)CCN(CCC(=O)OCCOC(=O)C2CC=C(CC/C=C(\C)CCC=C(C)C)CC2)CCN2CCCCC2)CC1 (stereo not drawn) [Compound 6, (E)-((3,3′-((2-(piperidin-1-yl)ethyl)azanediyl)bis(propanoyl))bis(oxy)) bis(ethane-2,1-diyl)bis(4-((E)-4,8-dimethylnona-3,7-dien-1-yl)cyclohex-3-enecarboxylate)]",PDI DNA,0.154
same,Particle Size (nm) DNA,167 nm
same,PDI RNA,0.260
same,Particle Size (nm) RNA,202.2 nm
CC(C)=CCC/C(C)=C/CCC1=CCC(C(=O)OCCN2CCN(CCOC(=O)C3CC=C(CC/C=C(\C)CCC=C(C)C)CC3)CC2)CC1 (stereo not drawn) [Compound 36],PDI DNA,0.091
same,Particle Size (nm) DNA,286.1 nm
same,PDI RNA,0.09
same,Particle Size (nm) RNA,260.6 nm
CCN(CCOC(=O)C1CC=C(CCC=C(C)C)CC1)CCOC(=O)C1CC=C(CCC=C(C)C)CC1 (stereo not drawn) [Compound 43],PDI DNA,0.185
same,Particle Size (nm) DNA,286.7 nm
same,PDI RNA,0.079
same,Particle Size (nm) RNA,310.1 nm
CC(C)=CCC/C(C)=C/CCC1=CCC(C(=O)OCCOC(=O)CCN(CCCCCCN(CCC(=O)OCCOC(=O)C2CC=C(CC/C=C(\C)CCC=C(C)C)CC2)CCC(=O)OCCOC(=O)C2CC=C(CC/C=C(\C)CCC=C(C)C)CC2)CCC(=O)OCCOC(=O)C2CC=C(CC/C=C(\C)CCC=C(C)C)CC2)CC1 (stereo not drawn) [Compound 7],PDI DNA,0.221
same,Particle Size (nm) DNA,299.7 nm
same,PDI RNA,0.099
same,Particle Size (nm) RNA,441.0 nm
CC(C)=CCCC1=CCC(C(=O)OCCN2CCN(CCOC(=O)C3CC=C(CCC=C(C)C)CC3)CC2)CC1 (stereo not drawn) [Compound 46],PDI DNA,0.116
same,Particle Size (nm) DNA,309 nm
same,PDI RNA,0.078
same,Particle Size (nm) RNA,334.6 nm
CCN(CCOC(=O)C1CC=C(CC/C=C(\C)CCC=C(C)C)CC1)CCOC(=O)C1CC=C(CC/C=C(\C)CCC=C(C)C)CC1 (stereo not drawn) [Compound 33],PDI DNA,0.087
same,Particle Size (nm) DNA,302 nm
same,PDI RNA,0.079
same,Particle Size (nm) RNA,332.9 nm
CC(C)=CCCC1=CCC(C(=O)OCCOC(=O)CCN(CCCCCCN(CCC(=O)OCCOC(=O)C2CC=C(CCC=C(C)C)CC2)CCC(=O)OCCOC(=O)C2CC=C(CCC=C(C)C)CC2)CCC(=O)OCCOC(=O)C2CC=C(CCC=C(C)C)CC2)CC1 (stereo not drawn) [Compound 20],PDI DNA,0.223
same,Particle Size (nm) DNA,304.3 nm
same,PDI RNA,0.082
same,Particle Size (nm) RNA,316.9 nm
CC(C)=CCC/C(C)=C/CCC1=CCC(C(=O)OCCN(CCOC(=O)C2CC=C(CC/C=C(\C)CCC=C(C)C)CC2)CCOC(=O)C2CC=C(CC/C=C(\C)CCC=C(C)C)CC2)CC1 (stereo not drawn) [Compound 38],PDI DNA,0.208
same,Particle Size (nm) DNA,398.8 nm
same,PDI RNA,0.128
same,Particle Size (nm) RNA,359.7 nm
CC(C)CCCC(C)CCCC1CCC(C(=O)OCCOC(=O)CCN(CCC(=O)OCCOC(=O)C2CCC(CCCC(C)CCCC(C)C)CC2)CCN(CCN(CCC(=O)OCCOC(=O)C2CCC(CCCC(C)CCCC(C)C)CC2)CCC(=O)OCCOC(=O)C2CCC(CCCC(C)CCCC(C)C)CC2)CCN(CCC(=O)OCCOC(=O)C2CCC(CCCC(C)CCCC(C)C)CC2)CCC(=O)OCCOC(=O)C2CCC(CCCC(C)CCCC(C)C)CC2)CC1 (stereo not drawn) [Compound 18],PDI DNA,0.072
same,Particle Size (nm) DNA,368.6 nm
same,PDI RNA,0.153
same,Particle Size (nm) RNA,323.3 nm
